{"source": "patent US11053204B2", "about": "“Pyrimidinyloxy benzene derivatives as herbicides” (FMC Corporation, priority 2015, dated 2021)", "assay_type_in_all_cases": "in vivo", "key": {"[1]": {"system": "windgrass (Apera spica-venti)", "assay": "Test C preemergence, plant response rating"}, "[2]": {"system": "pigweed, palmer (palmer pigweed, Amaranthus palmeri)", "assay": "Test C preemergence, plant response rating"}, "[3]": {"system": "wild poinsettia (Euphorbia heterophylla)", "assay": "Test C preemergence, plant response rating"}, "[4]": {"system": "johnsongrass (Sorghum halepense)", "assay": "Test C preemergence, plant response rating"}, "[5]": {"system": "geranium, cutleaf (cutleaf geranium, Geranium dissectum)", "assay": "Test C postemergence, plant response rating", "details": "for Geranium, Cutleaf plant response rating: scale 0 to 100 (0 no effect, 100 complete control)", "outline": "(§1)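 Greenhouse plants rated visually against untreated controls 13–15 d after treatment, scale 0 = no effect to 100 = complete control. Postemergence sprays went onto potted plants 2–18 cm tall (1–4 leaves); preemergence sprays onto soil freshly sown in loam–sand or silt loam, chemicals formulated in non-phytotoxic solvent with surfactant.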"}, "[6]": {"system": "johnsongrass (Sorghum halepense)", "assay": "Test C postemergence, plant response rating", "details": "for Johnsongrass plant response rating: scale 0 to 100 (0 no effect, 100 complete control)", "outline": "as §1"}, "[7]": {"system": "nightshade (eastern black nightshade, Solanum ptycanthum)", "assay": "Test C postemergence, plant response rating", "details": "for Nightshade plant response rating: scale 0 to 100 (0 no effect, 100 complete control)", "outline": "as §1"}, "[8]": {"system": "surinam grass (Brachiaria decumbens)", "assay": "Test C postemergence, plant response rating", "outline": "as §1"}, "[9]": {"system": "wild mustard (Sinapis arvensis)", "assay": "Test C postemergence, plant response rating", "details": "for Mustard, Wild plant response rating: scale 0 to 100 (0 no effect, 100 complete control)", "outline": "as §1"}, "[10]": {"system": "wild poinsettia (Euphorbia heterophylla)", "assay": "Test C postemergence, plant response rating", "details": "for Poinsettia, Wild plant response rating: scale 0 to 100 (0 no effect, 100 complete control)", "outline": "as §1"}, "[11]": {"system": "field violet (Viola arvensis)", "assay": "Test C postemergence, plant response rating", "details": "for Field Violet plant response rating: scale 0 to 100 (0 no effect, 100 complete control)", "outline": "as §1"}, "[12]": {"system": "windgrass (Apera spica-venti)", "assay": "Test C postemergence, plant response rating", "outline": "as §1"}, "[13]": {"system": "speedwell (bird's-eye speedwell, Veronica persica)", "assay": "Test C postemergence, plant response rating", "details": "for Speedwell plant response rating: scale 0 to 100 (0 no effect, 100 complete control)", "outline": "as §1"}, "[14]": {"system": "buckwheat, wild (wild buckwheat, Polygonum convolvulus)", "assay": "Test C postemergence, plant response rating", "details": "for Buckwheat, Wild plant response rating: scale 0 to 100 (0 no effect, 100 complete control)", "outline": "as §1"}, "[15]": {"system": "pigweed, palmer (palmer pigweed, Amaranthus palmeri)", "assay": "Test C postemergence, plant response rating", "details": "for Pigweed, Palmer plant response rating: scale 0 to 100 (0 no effect, 100 complete control)", "outline": "as §1"}, "[16]": {"system": "field poppy (Papaver rhoeas)", "assay": "Test C postemergence, plant response rating", "details": "for Field Poppy plant response rating: scale 0 to 100 (0 no effect, 100 complete control)", "outline": "as §1"}, "[17]": {"system": "Canada thistle (Cirsium arvense)", "assay": "Test C postemergence, plant response rating", "details": "for Canada Thistle plant response rating: scale 0 to 100 (0 no effect, 100 complete control)", "outline": "as §1"}, "[18]": {"details": "125 g ai/ha, scale 0 to 100 (0 no effect, 100 complete control)"}}, "data": [{"smiles": "O=C(CCCC(F)(F)F)c1c(Oc2ncc(Cl)cn2)cccc1C(F)(F)F", "note": "[Compound 125]", "values": [{"measurement": "Plant response rating, Windgrass", "setting": "[1]; 31 g ai/ha, scale 0 to 100", "value": 85}, {"measurement": "Plant response rating, Windgrass", "setting": "[1]; 62 g ai/ha, scale 0 to 100", "value": 90}, {"measurement": "Plant response rating, Windgrass", "setting": "[1]; 125 g ai/ha, scale of 0 to 100", "value": 100}, {"measurement": "Plant response rating, Pigweed, Palmer", "setting": "[2]; 31 g ai/ha, scale 0 to 100", "value": 100}, {"measurement": "Plant response rating, Pigweed, Palmer", "setting": "[2]; 62 g ai/ha, scale 0 to 100", "value": 100}, {"measurement": "Plant response rating, Pigweed, Palmer", "setting": "[2]; 125 g ai/ha, scale of 0 to 100", "value": 100}, {"measurement": "Plant response rating, Poinsettia, Wild", "setting": "[3]; 31 g ai/ha, scale 0 to 100", "value": 0}, {"measurement": "Plant response rating, Poinsettia, Wild", "setting": "[3]; 62 g ai/ha, scale 0 to 100", "value": 25}, {"measurement": "Plant response rating, Poinsettia, Wild", "setting": "[3]; 125 g ai/ha, scale of 0 to 100", "value": 30}, {"measurement": "Plant response rating, Johnsongrass", "setting": "[4]; 31 g ai/ha, scale 0 to 100", "value": 5}, {"measurement": "Plant response rating, Johnsongrass", "setting": "[4]; 62 g ai/ha, scale 0 to 100", "value": 60}, {"measurement": "Plant response rating, Johnsongrass", "setting": "[4]; 125 g ai/ha, scale of 0 to 100", "value": 75}, {"measurement": "Plant response rating, Geranium, Cutleaf", "setting": "[5]; 16 g ai/ha, scale of 0 to 100", "value": 25}, {"measurement": "Plant response rating, Geranium, Cutleaf", "setting": "[5]; 31 g ai/ha, scale 0 to 100", "value": 30}, {"measurement": "Geranium, Cutleaf plant response rating", "setting": "[5]; 62 g ai/ha", "value": 55}, {"measurement": "Geranium, Cutleaf plant response rating", "setting": "[5]; 125 g ai/ha", "value": 55}, {"measurement": "Plant response rating, Johnsongrass", "setting": "[6]; 16 g ai/ha, scale of 0 to 100", "value": 5}, {"measurement": "Plant response rating, Johnsongrass", "setting": "[6]; 31 g ai/ha, scale 0 to 100", "value": 5}, {"measurement": "Johnsongrass plant response rating", "setting": "[6]; 62 g ai/ha", "value": 10}, {"measurement": "Johnsongrass plant response rating", "setting": "[6]; 125 g ai/ha", "value": 25}, {"measurement": "Plant response rating, Nightshade", "setting": "[7]; 16 g ai/ha, scale of 0 to 100", "value": 50}, {"measurement": "Plant response rating, Nightshade", "setting": "[7]; 31 g ai/ha, scale 0 to 100", "value": 75}, {"measurement": "Nightshade plant response rating", "setting": "[7]; 62 g ai/ha", "value": 85}, {"measurement": "Nightshade plant response rating", "setting": "[7]; 125 g ai/ha", "value": 90}, {"measurement": "Plant response rating, Surinam Grass", "setting": "[8]; 16 g ai/ha, scale of 0 to 100", "value": 5}, {"measurement": "Plant response rating, Surinam Grass", "setting": "[8]; 31 g ai/ha, scale 0 to 100", "value": 10}, {"measurement": "Surinam Grass plant response rating", "setting": "[8]; [18]", "value": 20}, {"measurement": "Plant response rating, Mustard, Wild", "setting": "[9]; 16 g ai/ha, scale of 0 to 100", "value": 90}, {"measurement": "Plant response rating, Mustard, Wild", "setting": "[9]; 31 g ai/ha, scale 0 to 100", "value": 95}, {"measurement": "Mustard, Wild plant response rating", "setting": "[9]; 62 g ai/ha", "value": 98}, {"measurement": "Mustard, Wild plant response rating", "setting": "[9]; 125 g ai/ha", "value": 100}, {"measurement": "Plant response rating, Poinsettia, Wild", "setting": "[10]; 16 g ai/ha, scale of 0 to 100", "value": 65}, {"measurement": "Plant response rating, Poinsettia, Wild", "setting": "[10]; 31 g ai/ha, scale 0 to 100", "value": 65}, {"measurement": "Poinsettia, Wild plant response rating", "setting": "[10]; 62 g ai/ha", "value": 75}, {"measurement": "Poinsettia, Wild plant response rating", "setting": "[10]; 125 g ai/ha", "value": 85}, {"measurement": "Plant response rating, Field Violet", "setting": "[11]; 16 g ai/ha, scale of 0 to 100", "value": 90}, {"measurement": "Plant response rating, Field Violet", "setting": "[11]; 31 g ai/ha, scale 0 to 100", "value": 98}, {"measurement": "Field Violet plant response rating", "setting": "[11]; 62 g ai/ha", "value": 98}, {"measurement": "Field Violet plant response rating", "setting": "[11]; 125 g ai/ha", "value": 98}, {"measurement": "Plant response rating, Windgrass", "setting": "[12]; 16 g ai/ha, scale of 0 to 100", "value": 10}, {"measurement": "Plant response rating, Windgrass", "setting": "[12]; 31 g ai/ha, scale 0 to 100", "value": 15}, {"measurement": "Windgrass plant response rating", "setting": "[12]; [18]", "value": 35}, {"measurement": "Plant response rating, Speedwell", "setting": "[13]; 16 g ai/ha, scale of 0 to 100", "value": 55}, {"measurement": "Plant response rating, Speedwell", "setting": "[13]; 31 g ai/ha, scale 0 to 100", "value": 70}, {"measurement": "Speedwell plant response rating", "setting": "[13]; 62 g ai/ha", "value": 98}, {"measurement": "Speedwell plant response rating", "setting": "[13]; 125 g ai/ha", "value": 98}, {"measurement": "Plant response rating, Buckwheat, Wild", "setting": "[14]; 16 g ai/ha, scale of 0 to 100", "value": 70}, {"measurement": "Plant response rating, Buckwheat, Wild", "setting": "[14]; 31 g ai/ha, scale 0 to 100", "value": 65}, {"measurement": "Buckwheat, Wild plant response rating", "setting": "[14]; 62 g ai/ha", "value": 75}, {"measurement": "Buckwheat, Wild plant response rating", "setting": "[14]; 125 g ai/ha", "value": 98}, {"measurement": "Plant response rating, Pigweed, Palmer", "setting": "[15]; 16 g ai/ha, scale of 0 to 100", "value": 40}, {"measurement": "Plant response rating, Pigweed, Palmer", "setting": "[15]; 31 g ai/ha, scale 0 to 100", "value": 85}, {"measurement": "Pigweed, Palmer plant response rating", "setting": "[15]; 62 g ai/ha", "value": 80}, {"measurement": "Pigweed, Palmer plant response rating", "setting": "[15]; 125 g ai/ha", "value": 85}, {"measurement": "Plant response rating, Field Poppy", "setting": "[16]; 16 g ai/ha, scale of 0 to 100", "value": 90}, {"measurement": "Plant response rating, Field Poppy", "setting": "[16]; 31 g ai/ha, scale 0 to 100", "value": 95}, {"measurement": "Field Poppy plant response rating", "setting": "[16]; 62 g ai/ha", "value": 100}, {"measurement": "Field Poppy plant response rating", "setting": "[16]; 125 g ai/ha", "value": 100}, {"measurement": "Plant response rating, Canada Thistle", "setting": "[17]; 16 g ai/ha, scale of 0 to 100", "value": 80}, {"measurement": "Plant response rating, Canada Thistle", "setting": "[17]; 31 g ai/ha, scale 0 to 100", "value": 85}, {"measurement": "Canada Thistle plant response rating", "setting": "[17]; 62 g ai/ha", "value": 90}, {"measurement": "Canada Thistle plant response rating", "setting": "[17]; 125 g ai/ha", "value": 90}]}]}
